Data taken from patent US8921348B2, “Optimizing mifepristone levels in plasma serum of patients suffering from mental disorders treatable with glucocorticoid receptor antagonists” (Corcept Therapeutics, priority 2007, dated 2014).

Columns and labels:
[1] = system: patients with major depressive disorder with psychotic features (PMD); assay: Phase III trials of CORLUX plus antidepressant vs. placebo: responders on BPRS Positive Symptom Subscale; assay type: in vivo, human
Excerpt: This example provides a randomized, double-blind, placebo-controlled, parallel group study of the safety and efficacy of three dose levels of CORLUXTM (Mifepristone) plus an antidepressant vs. placebo plus an antidepressant in the treatment of psychotic symptoms in patients with major depressive disorder with psychotic features (PMD). The study was a Phase III trial performed using several investigators at several different sites. […] Patients eligible for randomization were male or nonpregnant female outpatients, and inpatients, if clinically required, with a diagnosis of Major Depressive Disorder with Psychotic Features (DSM-IV 296.24 or 296.34), and a BPRS Positive Symptom subscale score of at least 12, a BPRS total score of at least 38, and a HAMD-24 score of at least 20. CORLUX was used as the test drug at 300 (1×300 mg tablet), 600 (2×300 mg tablet), and 1200 mg (4×300 mg tablet) once a day by mouth for the initial 7 days. […] The reference drug was a placebo (1, 2, or 4 tablets matching CORLUX 300 mg tablets) once a day by mouth for the initial 7 days. […] An antidepressant selected from a prescribed list was started simultaneously with the study drug, and continued to the end of the trial. BPRS and HAM-D assessments were performed at Screen and on Days 0, 7, 14, 28, 42, and 56, and at early termination when it occurred. Safety visits occurred at Days 21 and 35. The patients who are seen as outpatients made daily visits to the clinic setting to receive study medications for the first 7 days. If clinically necessary, a patient was treated as an inpatient. In addition to the selected antidepressant, continuing benzodiazepines was allowed up to specified dose levels, but antipsychotics, mood stabilizers and additional antidepressants were not allowed during the entire study. If the patient was at imminent risk to him/herself and/or others and therefore could not be adequately treated within the study (e.g., required ECT, new or re-hospitalization for PMD, antipsychotics or mood stabilizers, or a second antidepressant), the patient underwent an early termination visit on the day that rescue therapy was started and completed final efficacy evaluations. If early termination occurred prior to day 35, the patient returned for a safety follow up visit at day 35. […] The secondary endpoints were: (1) the proportion of responders at days 7 and 28; and (2) the mean change from baseline to day 56 in the HAM-D-24 total score. […] This example provides an international, double-blind, placebo-controlled study of the efficacy and safety of CORLUXTM (Mifepristone) vs. placebo in the treatment of psychotic symptoms in patients with Psychotic Major Depression (PMD). The study was a Phase III trial performed using several investigators at several different international sites. […] The number of patients was 220 evaluable subjects. […] CORLUX was administered in a 600 mg dose once a day by mouth for the initial 7 days (administered as two 300 mg tablets). Reference drug, dose, dosage regimen, route of administration: Matching placebo was administered once a day by mouth for the initial 7 days. […] After the 7-day dosing period, patients were evaluated at Days 14, 21, 28, 35, 42 and 56. An antidepressant was administered simultaneously with study drug, and continued to the end of the trial (Day 56). BPRS and HAMD-24 assessments were performed at Screen and on Days 0, 7, 14, 28, 42 and 56, or at early termination. A safety visit occurred on Days 21 and 35, and at study termination on Day 56. Subjects treated on an outpatient basis made daily visits to the clinic to receive study medication for the first 7 days. Subjects were treated on an inpatient basis for as long as deemed clinically necessary by the investigator. In addition to the selected antidepressant, concomitant benzodiazepine treatment was allowed up to specified dose levels. Antipsychotics, mood stabilizers and a second antidepressant were prohibited during the entire study. […]

[2] = Mifepristone blood serum/plasma level after the same dose in different patients; assay type: in vivo, human; details: same dose of mifepristone
Protocol: In some embodiments, the assay can be performed as follows. Blood is collected from a patient in a vacutainer containing sodium heparin. The blood is centrifuged and the resulting plasma frozen at an appropriate temperature until assay. In some embodiments, the temperature is about −70° C. In other embodiments, other blood components can be collected and stored. Prior to analysis, the plasma is thawed and a fraction of the plasma is mixed with an internal standard in a solvent such as acetonitrile, to obtain a fixed concentration of the standard. In some embodiments, the internal standard can be mifepristone-d4. The concentration of the internal standard is selected in order to be greater than the expected concentration of mifepristone in the plasma. […]
The sample can then be analyzed by reverse-phase high pressure liquid chromatography (HPLC). […]
The reverse-phase HPLC column can be a phenyl column maintained at 50° C. […] Following elution, the mobile phase can be nebulized using heated nitrogen in a Z-spray source/interface and the ionized compounds detected using a tandem quadrupole mass spectrometer. Mifepristone (molecular weight of 430 g/mol) can be detected at m/z 372.30. The internal standard mifepristone-d4 can be detected at m/z 376.30. The ratio of the mifepristone peak height to the peak height for the internal standard can then be calculated. […]

[3] = species and route not given; cited from earlier work

CC#C[C@]1(O)CC[C@H]2[C@@H]3CCC4=CC(=O)CCC4=C3[C@@H](c3ccc(N(C)C)cc3)C[C@@]21C [Corlux, 17-beta-hydroxy-11-beta-(4-dimethyl-aminophenyl)-17-alpha-(1-propynyl)-estra-4,9-dien-3-one]
proportion of patients with at least a 50% reduction from baseline in BPRS PSS scores at days 7 and 56 ([1]; 1200 mg group (OC), all patients receiving the 1200 mg dose, FIG. 4): 47%
proportion of patients with at least a 50% reduction from baseline in BPRS PSS scores at days 7 and 56 ([1]; 1200 mg group (OC), plasma levels <1357 ng/mL, FIG. 5): 31%
proportion of patients with at least a 50% reduction from baseline in BPRS PSS scores at days 7 and 56 ([1]; 1200 mg group (OC), plasma levels <1661 ng/mL, FIG. 6): 39%
proportion of patients with at least a 50% reduction from baseline in BPRS PSS scores at days 7 and 56 ([1]; 1200 mg group (OC), plasma levels >1357 ng/mL, FIG. 5): 54%
proportion of patients with at least a 50% reduction from baseline in BPRS PSS scores at days 7 and 56 ([1]; 1200 mg group (OC), plasma levels >1661 ng/mL, FIG. 6): 58%
proportion of patients with at least a 50% reduction from baseline in BPRS PSS scores at days 7 and 56 ([1]; all studies (OC), all patients receiving Corlux, FIG. 1): 35%
proportion of patients with at least a 50% reduction from baseline in BPRS PSS scores at days 7 and 56 ([1]; all studies (OC), patients with plasma levels <1357 ng/mL, FIG. 2): 27%
proportion of patients with at least a 50% reduction from baseline in BPRS PSS scores at days 7 and 56 ([1]; all studies (OC), patients with plasma levels <1661 ng/mL, FIG. 3): 29%
proportion of patients with at least a 50% reduction from baseline in BPRS PSS scores at days 7 and 56 ([1]; all studies (OC), patients with plasma levels >1357 ng/mL, FIG. 2): 40%
proportion of patients with at least a 50% reduction from baseline in BPRS PSS scores at days 7 and 56 ([1]; all studies (OC), patients with plasma levels >1661 ng/mL, FIG. 3): 44%
difference in blood serum levels from one patient to another [2]: ≤ 800% and up to 800%
LD50 dose [3]: about 1000 mg/kg
